From the supplement of paper PMC4862054

Key:
Details in all cases: incubation time: 72 h
DU-4475 = assay: drug sensitivity score (DSS), CellTiter-Glo (DSS (AUC-based score)); higher = stronger drug effect (viability inhibition or cytotoxicity); extreme values may be limits of the assay
Outline: (§1)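 Plates with 384 wells held compound at 5 concentrations in 10-fold steps over a 10,000-fold range specific to each compound. Breast cancer cell lines were added in 20 µl suspension and incubated 72 h, then read for CellTox Green and CellTiter-Glo signals, with each plate normalised to 0.1 % DMSO and a positive kill control. The drug sensitivity score is based on the area under the fitted dose-response curve.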

CAL-85-1 [1] = assay: as above
Outline: as §1

MDA-MB-436 [2] = assay: as above
Outline: as §1

SK-BR-3 = assay: as above
Outline: as §1

MCF-10A = assay: as above
Outline: as §1

CAL-51 = assay: as above
Outline: as §1

BT-474 = assay: as above
Outline: as §1

CAL-148 = assay: as above
Outline: as §1

HCC1599 = assay: as above
Outline: as §1

HCC1937 = assay: as above
Outline: as §1

BT-549 [3] = assay: as above
Outline: as §1

MFM-223 [4] = assay: as above
Outline: as §1

MDA-MB-231 = assay: as above
Outline: as §1

MDA-MB-468 = assay: as above
Outline: as §1

HDQ-P1 = assay: as above
Outline: as §1

CAL-120 = assay: as above
Outline: as §1

HCC1143 = assay: as above
Outline: as §1

Hs578T = assay: as above
Outline: as §1

MDA-MB-453 = assay: as above
Outline: as §1

CAL-85-1 [5] = assay: drug sensitivity score (DSS), CellTox Green (DSS (AUC-based score)); higher = stronger drug effect (viability inhibition or cytotoxicity); extreme values may be limits of the assay
Outline: as §1

MDA-MB-436 [6] = assay: as above
Outline: as §1

BT-549 [7] = assay: as above
Outline: as §1

MFM-223 [8] = assay: as above
Outline: as §1

Measured: drug sensitivity score

CC(=O)Nc1ccc(C(=O)Nc2ccccc2N)cc1 [Tacedinaline]
0: all assays above
